In ChEMBL document CHEMBL4145662, “Novel Nonsteroidal Progesterone Receptor (PR) Antagonists with a Phenanthridinone Skeleton” (ACS Med Chem Lett, 2018):

How the values were obtained:
Progesterone receptor [1] = molecular target: T1, Progesterone receptor (Homo sapiens, UniProt P06401); assay: Antagonist activity at PR in human T47D cells assessed as inhibition of progesterone-induced alkaline phosphatase activity measured after 24 hrs; type: cell-based
T1 sequence (P06401 whole entry): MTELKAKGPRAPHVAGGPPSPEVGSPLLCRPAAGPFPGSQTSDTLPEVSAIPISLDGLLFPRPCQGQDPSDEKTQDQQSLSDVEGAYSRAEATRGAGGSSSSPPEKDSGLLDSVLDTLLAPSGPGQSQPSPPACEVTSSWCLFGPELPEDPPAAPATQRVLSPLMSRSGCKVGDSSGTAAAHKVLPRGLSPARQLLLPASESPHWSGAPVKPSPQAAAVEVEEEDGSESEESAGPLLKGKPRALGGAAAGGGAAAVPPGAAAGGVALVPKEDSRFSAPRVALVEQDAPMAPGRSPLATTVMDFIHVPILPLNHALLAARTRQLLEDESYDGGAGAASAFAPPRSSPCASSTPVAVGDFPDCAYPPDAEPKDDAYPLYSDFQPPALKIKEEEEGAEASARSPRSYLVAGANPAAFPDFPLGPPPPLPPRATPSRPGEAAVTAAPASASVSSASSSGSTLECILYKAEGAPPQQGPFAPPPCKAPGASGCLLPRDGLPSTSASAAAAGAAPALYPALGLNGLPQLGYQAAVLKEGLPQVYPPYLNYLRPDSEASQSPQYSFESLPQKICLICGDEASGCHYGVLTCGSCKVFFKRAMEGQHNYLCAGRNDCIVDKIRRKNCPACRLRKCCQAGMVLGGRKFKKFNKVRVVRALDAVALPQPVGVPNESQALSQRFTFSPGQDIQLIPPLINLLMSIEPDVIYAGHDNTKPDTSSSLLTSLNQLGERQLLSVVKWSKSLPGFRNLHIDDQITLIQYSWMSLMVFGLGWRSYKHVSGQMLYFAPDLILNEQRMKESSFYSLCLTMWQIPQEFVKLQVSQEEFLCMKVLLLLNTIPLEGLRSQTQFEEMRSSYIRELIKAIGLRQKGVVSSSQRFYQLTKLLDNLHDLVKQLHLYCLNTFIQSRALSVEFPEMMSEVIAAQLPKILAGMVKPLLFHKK

Progesterone receptor [2] = molecular target: T1, Progesterone receptor; assay: Agonist activity at PR in human T47D cells at 10 uM; type: cell-based

Row | SMILES | IC50 (Progesterone receptor [1]) | Activity (Progesterone receptor [2])
1 | CCCCn1c(=O)c2ccc(OC)cc2c2cc(C(O)(C(F)(F)F)C(F)(F)F)ccc21 | 5800 nM | 
2 | CCCCn1c(=O)c2ccccc2c2cc(C(C)(C)C)ccc21 | 8300 nM | 
3 | CCCCn1c(=O)c2ccccc2c2cc(CC)ccc21 | 7800 nM | 
4 | CCCCCCn1c(=O)c2ccccc2c2cc(C(O)(C(F)(F)F)C(F)(F)F)ccc21 | 2500 nM | 
5 | CC#C[C@]1(O)CC[C@H]2[C@@H]3CCC4=CC(=O)CCC4=C3[C@@H](c3ccc(N(C)C)cc3)C[C@@]21C [MIFEPRISTONE] |  | Not Active
6 | CCCCCCCCCn1c(=O)c2ccccc2c2cc(C(O)(C(F)(F)F)C(F)(F)F)ccc21 | 10000 nM | 
7 | CCCCn1c(=O)c2ccccc2c2c(OC)c(C(O)(C(F)(F)F)C(F)(F)F)ccc21 | 4000 nM | 
8 | CCCCn1c(=O)c2cc(OC)ccc2c2cc(C(O)(C(F)(F)F)C(F)(F)F)ccc21 | 1100 nM | 
9 | CCCCn1c(=O)c2c(OC)cccc2c2cc(C(O)(C(F)(F)F)C(F)(F)F)ccc21 | 12000 nM | 
10 | CCCCn1c(=O)c2ccccc2c2cc(C(O)(C(F)(F)F)C(F)(F)F)ccc21 | 1200 nM | 
11 | O=c1[nH]c2ccc(C(O)(C(F)(F)F)C(F)(F)F)cc2c2cc(F)ccc12 | 1000 nM | 
12 | CCCCn1c(=O)c2ccccc2c2cc(CO)ccc21 | 8600 nM | 
13 | CCCCn1c(=O)c2ccccc2c2ccccc21 | 7100 nM | 
14 | CCn1c(=O)c2ccccc2c2cc(C(O)(C(F)(F)F)C(F)(F)F)ccc21 | 1400 nM | 
15 | CCCCn1c(=O)c2cccc(OC)c2c2cc(C(O)(C(F)(F)F)C(F)(F)F)ccc21 | 2700 nM | 
16 | CCCn1c(=O)c2ccccc2c2cc(C(O)(C(F)(F)F)C(F)(F)F)ccc21 | 3800 nM | 
17 | CCCCn1c(=O)c2ccccc2c2cc(C)ccc21 | 7900 nM | 
18 | O=c1[nH]c2ccc(C(O)(C(F)(F)F)C(F)(F)F)cc2c2ccccc12 | 780 nM | 

More lines, in order of falling IC50 (Progesterone receptor [1]), values ahead:

Row | IC50 (Progesterone receptor [1]) | Activity (Progesterone receptor [2]) | SMILES
19 | 730 nM |  | O=c1[nH]c2ccc(C(O)(C(F)(F)F)C(F)(F)F)cc2c2cccc(F)c12
20 | 560 nM |  | CCCCn1c(=O)c2ccccc2c2cc(C(O)(C(F)(F)F)C(F)(F)F)cc(OC)c21
21 | 410 nM |  | CCCCn1c(=O)c2ccccc2c2cc(C(O)(C(F)(F)F)C(F)(F)F)c(OC)cc21
22 | 360 nM |  | CCCc1cc(C(O)(C(F)(F)F)C(F)(F)F)cc2c1[nH]c(=O)c1ccccc12
23 | 340 nM |  | Cn1c(=O)c2ccccc2c2cc(C(O)(C(F)(F)F)C(F)(F)F)ccc21
24 | 310 nM |  | O=c1[nH]c2ccc(C(O)(C(F)(F)F)C(F)(F)F)cc2c2ccc(F)cc12
25 | 270 nM |  | COc1cc(C(O)(C(F)(F)F)C(F)(F)F)cc2c1[nH]c(=O)c1ccccc12
26 | 210 nM |  | CCc1cc(C(O)(C(F)(F)F)C(F)(F)F)cc2c1[nH]c(=O)c1ccccc12
27 | 180 nM |  | Cc1cc(C(O)(C(F)(F)F)C(F)(F)F)cc2c3ccccc3c(=O)n(C)c12
28 | 130 nM |  | O=c1[nH]c2c(F)cc(C(O)(C(F)(F)F)C(F)(F)F)cc2c2ccccc12
29 | 123 nM | Not Active | Cn1c(C#N)ccc1-c1ccc2oc(=O)ccc2c1
30 | 107 nM | Not Active | O=S(=O)(Nc1ccc(Oc2ccccc2)cc1)c1cccc(C(F)(F)F)c1
